“Also recorded” adds a separate entry of the source. Like-named read-outs stand apart in the source and are kept apart here.
What was measured:
Type in all cases: in vivo, rat
[1] = test system: visceral pain (visceral hypersensitivity) in rats induced by intrarectal injection of DNBS; assay: Acute administration test: abdominal withdrawal reflex (AWR) to colorectal distension in DNBS-treated rats
Procedure: (§1) Male Sprague-Dawley rats (Envigo, Varese, Italy) weighing approximately 300 g at the beginning of a test were used. The animals were housed in Centro Stabulazione Animali da Laboratorio (CeSAL, University of Florence) and used at least one week after their arrival. Four rats were raised per cage (size 26×41 cm). The animals were fed with standard laboratory diet and tap water ad libitum and kept at 23±1° C. with a 12-hour light/dark cycle (light at 7:00 in the morning). All animal manipulations were carried out according to the European Community Guidelines for Animal Care (DL116/92) and the application of European Communities Council Directive of Nov. 24, 1986 (86/609/EEC). The ethical policy of the University of Florence complies with the Guide for the Care and Use of Laboratory Animals of the US National Institutes of Health (NIH Publication No. 85-23, revised 1996, University of Florence assurance number: A5278-01). Formal approval to conduct the experiments described was obtained from the Animal Subjects Review Board of the University of Florence. Experiments involving animals have been reported according to ARRIVE guidelines (McGrath and Lilley, Br. J. Pharmacol. 2015; 172:3189-3193). All efforts were made to minimize suffering of the animals and to reduce the number of animals used.
Colitis was induced by intrarectal administration of 15 mg of 2,4-dinitrobenzenesulfonic acid (DNBS; Sigma-Aldrich S.r.l., Milano, Italia) in 0.25 ml of 50% ethanol via a polyethylene PE-60 catheter inserted approximately 8 cm into the anus, while the rat was under short-term anesthesia by isoflurane (2%). […]
Compound A and Compound B were dissolved in water and orally administered 30 minutes before the beginning of a test, and an acute effect was evaluated.
(§2) Visceral sensitivity to colorectal distension (CRD) was evaluated by measurement of abdominal withdrawal reflex (AWR) in conscious animals using semiquantitative scores (Lucarini et al., Cells. 2020; 9 (8): E1772). […]
Visceral sensitivity was evaluated by measuring abdominal withdrawal reflex (AWR) to colorectal distension (0.5 to 3 mL).

[2] = test system: visceral pain (visceral hypersensitivity) in rats induced by intrarectal injection of DNBS; details: prevention test: daily from Day 1 to Day 6, evaluated 6 days after colitis induction, 24 hours after last treatment
Procedure: as §1, with “Experiments involving animals have been reported according to ARRIVE guidelines (McGrath and Lilley, Br. J. Pharmacol. 2015; 172:3189-3193). All efforts were made to minimize suffering of the animals and to reduce the number of animals used.” left out
as §2
Visceral sensitivity was evaluated by measuring AWR to colorectal distension (0.5 to 3 mL). […]

[3] = test system: colonic damage in rats induced by the intrarectal injection of DNBS; assay: Prevention test: macroscopic colonic damage score in DNBS-treated rats; details: prevention test: daily from Day 1 to Day 6
Procedure: (§3) Colitis was induced by intrarectal administration of 15 mg of 2,4-dinitrobenzenesulfonic acid (DNBS; Sigma-Aldrich S.r.l., Milano, Italia) in 0.25 ml of 50% ethanol via a polyethylene PE-60 catheter inserted approximately 8 cm into the anus, while the rat was under short-term anesthesia by isoflurane (2%). To control rats, 0.25 ml of a vehicle was administered.
(§4) In addition, in order to evaluate an effect of repeated administration of a P2X4 antagonist, two different tests (that is, prevention test and intervention test) were adopted. […]
(§5) The macroscopic criteria were as follows: • presence of adhesion between colon and another intraperitoneal organ (0-2: no adhesions: 0 points, adhesion with only one adjacent organ: 1 point, and adhesions with a plurality of adjacent organs: 2 points); • consistency of colon fecal matter (indirect marker of diarrhea; 0-2: formed stool: 0 points, loose stool: 1 point, and liquid stool: 2 points); • thickening of colonic wall (mm: 1 point was scored for 1 mm); and • presence and spread of hyperemia and macroscopic mucosal damage (0-5: none: 0 points, hyperemic: 1 point, ulcers without hyperemia or thickening of intestinal wall: 2 points, ulcer with inflammation at one site: 3 points, ulcers with inflammation at two or more sites: 4 points, and wide site of damage exceeding 1 cm along length of colon: 5 points). […]

[4] = Prevention test: body weight of DNBS-treated rats; details: Day 1 vs Day 6, DNBS weight loss approximately 10%, not significant
Procedure: (§6) In addition, in order to evaluate an effect of repeated administration of a P2X4 antagonist, two different tests (that is, prevention test and intervention test) were adopted. In the prevention test, the test medicament was administered daily to the rats immediately after the delivery of DNBS (Day 1), and the treatment was continued until the rats were sacrificed on the 6th day (Day 6). In the intervention test, the daily treatment with the medicament began 2 days after the delivery of DNBS (Day 3), and the rats were sacrificed on the 8th day (Day 8).
Visceral sensitivity was evaluated by measuring AWR to colorectal distension (0.5 to 3 mL). In the prevention test, the test medicament was administered daily to the rats immediately after the administration of DNBS, and the treatment was continued until the rats were sacrificed on the 6th day (Day 6). The evaluation was performed 6 days after the induction of colitis and 24 hours after the last treatment with Compound A (A) and Compound B (B). After the test, the animals were sacrificed, and macroscopic damage scores were assigned to their colons (FIG. 2C and FIG. 2D). In FIG. 2E and FIG. 2F, weights (g) of the animals before the DNBS injection (Day 1) and at the end of the preventive treatment with Compound A and Compound B (Day 6) are shown, respectively.

[5] = test system: visceral pain (visceral hypersensitivity) in rats induced by intrarectal injection of DNBS; assay: Intervention test (repeated administration): AWR to colorectal distension in DNBS-treated rats; details: for effect on visceral pain compared with the treatment with dexamethasone: intervention test; for onset of visceral pain (visceral hypersensitivity): intervention test: daily from Day 3 to Day 8, evaluated Day 8, 24 hours after last treatment
Procedure: as §1, §3, §6
Visceral sensitivity to colorectal distension (CRD) was evaluated by measurement of abdominal withdrawal reflex (AWR) in conscious animals using semiquantitative scores (Lucarini et al., Cells. 2020; 9 (8): E1772). Briefly, the rats were anesthetized with isoflurane. A lubricated latex balloon (length: 4.5 cm) that is assembled into an embolectomy catheter by being attached to a polyethylene tube to be connected to a syringe filled with water was inserted into the rectum and the descending colon of adult rats through the anus. […]

[6] = test system: colonic damage in rats induced by the intrarectal injection of DNBS; assay: Intervention test: macroscopic colonic damage score in DNBS-treated rats; details: intervention test: daily from Day 3 to Day 8
Procedure: as §3, §4, §5

[7] = Intervention test: body weight of DNBS-treated rats; details: Day 1 vs Day 8, DNBS weight loss approximately 10%, not significant
Procedure: as §6
In the test, the administration of the compounds began 2 days after the delivery of DNBS (Day 3) and was continued until the rats were sacrificed on the 8th day (Day 8). Evaluation was performed 8 days after the induction of colitis (Day 8) and 24 hours after the last treatment with Compound A (A) and Compound B (B). After the test, the animals were sacrificed, and macroscopic damage scores were assigned to their colons (FIG. 3C and FIG. 3D). In FIG. 3E and FIG. 3F, weights (g) of the animals before the DNBS injection (Day 1) and at the end of the intervention treatment with Compound A and Compound B (Day 8) are reported, respectively.

[8] = test system: occludin expression in colonic mucosa; assay: Occludin expression in colonic tissue of DNBS-induced rats by western blotting; details: 10 mg/kg

SMILES | visceral pain threshold ([1]; acute administration, higher doses, DNBS animals) | AWR to colorectal distension ([1]; acute oral administration 10 to 30 mg/kg, 30 minutes before test, seven days after DNBS) | onset of visceral pain (visceral hypersensitivity) [2] | colonic damage (macroscopic damage score) [3] | weight loss caused by DNBS [4] | effect on visceral pain compared with the treatment with dexamethasone [5] | onset of visceral pain (visceral hypersensitivity) [5] | colonic damage (macroscopic damage score) [6] | weight loss caused by DNBS [7] | occludin expression in inflamed tissues compared to the DNBS-induced rats ([8]; listed as Compound A, sodium salt) | AWR to colorectal distension ([1]; acute oral administration 10 and 30 mg/kg, colorectal distension 1 to 2 mL) | occludin expression in inflamed tissues compared to the DNBS-induced rats ([8]; listed as Compound B)
O=C1CC(=O)N(c2cccc(-c3noc(=S)[nH]3)c2)c2ccc3ccccc3c2N1.[Na] [Compound A17, 5-[3-(5-thioxo-4H-[1,2,4]oxadiazol-3-yl)phenyl]-1H-naphtho[1,2-b][1,4]diazepine-2,4(3H,5H)-dione sodium salt] | returned to a control value | significantly and dose-dependently decreased | counteracted | counteracted | did not affect | more effective | significantly reduces | significant reduction | does not affect | increased; also recorded: counteract | – | –
O=C1CC(=O)N(c2ccc(NC(=O)c3ccccc3I)cc2)c2ccc3ccccc3c2N1 [Compound B48, 5-[4-(2-iodobenzoylamino)phenyl]-1H-naphtho[1,2-b][1,4]diazepine-2,4(3H,5H)-dione] | – | – | counteracted | counteracted | did not affect | more effective | significantly reduces | significant reduction | does not affect | – | significantly reduced | increased; also recorded: counteract
